In patent US6355799B1, “Substituted benzene compounds, process for their preparation, and herbicidal and defoliant compositions containing them” (ISK Americas Incorporated, priority 1997, dated 2002):

Columns and labels:
Assay type in all cases: in vivo
[1] = tested on: large crabgrass (Digitaria sanguinalis, DIGSA); assay: Pre-emerge test, greenhouse herbicide activity screening
Summary of the method: (§1)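 Sandy loam pots; pre-emerge: sown 1 d pre-spray, surface-watered after, then bottom-watered. Post-emerge: sown 8–21 d before, 2–3 leaf stage, + 0.25% v/v NIS, bottom-watered. Acetone, 187 l/ha track spray, 15–1000 g ai/ha. 0–100 injury score, day 14.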

[2] = tested on: barnyardgrass (Echinochloa crus-galli, ECHCG); assay: as above
Summary of the method: as §1

[3] = tested on: ivyleaf morningglory (Ipomoea hederacea, IPOHE); assay: as above
Summary of the method: as §1

[4] = tested on: sicklepod (Cassia obtusifolia, CASOB); assay: as above
Summary of the method: as §1

[5] = tested on: green foxtail (Setaria viridis, SETVI); assay: as above
Summary of the method: as §1

[6] = tested on: lambsquarters (Chenopodium album, CHEAL); assay: as above
Summary of the method: as §1

[7] = tested on: velvetleaf (Abutilon theophrasti, ABUTH); assay: as above
Summary of the method: as §1

[8] = tested on: redroot pigweed (Amaranthus retroflexus, AMARE); assay: as above
Summary of the method: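 Herbicidal damage is scored 0 (none) to 100 (complete plant death) two weeks after a simulated field spray. Rates span 15–1000 g ai/ha, delivered in acetone at 187 l/ha. For post-emergence treatments, plants have 2–3 leaves and the spray carries 0.25% v/v non-ionic surfactant.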

[9] = tested on: large crabgrass (Digitaria sanguinalis, DIGSA); assay: Post-emerge test, greenhouse herbicide activity screening; conditions: post-emerge; for Post-emerge Herbicidal Activity DIGSA: phytotoxicity rating 0-100 at 14 days after application; for phytotoxicity rating DIGSA: 14 days after application, rating scale 0-100
Summary of the method: as §1

[10] = tested on: barnyardgrass (Echinochloa crus-galli, ECHCG); assay: as above; conditions: post-emerge; for Post-emerge Herbicidal Activity ECHCG: phytotoxicity rating 0-100 at 14 days after application; for phytotoxicity rating ECHCG: 14 days after application, rating scale 0-100
Summary of the method: as §1

[11] = tested on: ivyleaf morningglory (Ipomoea hederacea, IPOHE); assay: as above; conditions: post-emerge; for Post-emerge Herbicidal Activity IPOHE: phytotoxicity rating 0-100 at 14 days after application; for phytotoxicity rating IPOHE: 14 days after application, rating scale 0-100
Summary of the method: as §1

[12] = tested on: johnsongrass (Sorghum halepense, SORHA); assay: as above; conditions: post-emerge; for Post-emerge Herbicidal Activity SORHA: phytotoxicity rating 0-100 at 14 days after application; for phytotoxicity rating SORHA: 14 days after application, rating scale 0-100
Summary of the method: as §1

[13] = tested on: sicklepod (Cassia obtusifolia, CASOB); assay: as above; conditions: post-emerge; for Post-emerge Herbicidal Activity CASOB: phytotoxicity rating 0-100 at 14 days after application; for phytotoxicity rating CASOB: 14 days after application, rating scale 0-100
Summary of the method: as §1

[14] = tested on: green foxtail (Setaria viridis, SETVI); assay: as above; conditions: post-emerge; for Post-emerge Herbicidal Activity SETVI: phytotoxicity rating 0-100 at 14 days after application; for phytotoxicity rating SETVI: 14 days after application, rating scale 0-100
Summary of the method: as §1

[15] = tested on: lambsquarters (Chenopodium album, CHEAL); assay: as above; conditions: post-emerge; for Post-emerge Herbicidal Activity CHEAL: phytotoxicity rating 0-100 at 14 days after application; for phytotoxicity rating CHEAL: 14 days after application, rating scale 0-100
Summary of the method: as §1

[16] = tested on: redroot pigweed (Amaranthus retroflexus, AMARE); assay: as above; conditions: post-emerge; for Post-emerge Herbicidal Activity AMARE: phytotoxicity rating 0-100 at 14 days after application; for phytotoxicity rating AMARE: 14 days after application
Summary of the method: as §1

[17] = tested on: velvetleaf (Abutilon theophrasti, ABUTH); assay: as above; conditions: post-emerge; for Post-emerge Herbicidal Activity ABUTH: phytotoxicity rating 0-100 at 14 days after application; for phytotoxicity rating ABUTH: 14 days after application, rating scale 0-100
Summary of the method: as §1

[18] = tested on: field corn (Zea mays L., var. Dekalb 535, CORN); assay: Pre-emerge test, crop safety
Summary of the method: (§2)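 Visual ratings on a 0-100 scale (0 no damage, 100 all plants dead) were taken at 14 days after treatment. Rates of 15-1000 g ai/ha in acetone, 187 l/ha, were sprayed onto soil one day after planting (pre-emerge) or onto 2-3 leaf plants with 0.25% v/v surfactant (post-emerge).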

[19] = tested on: upland rice (Oryza sp., var. Tebonnet, RICE); assay: Pre-emerge test, crop safety
Summary of the method: as §2

[20] = tested on: field corn (Zea mays L., var. Dekalb 535, CORN); assay: Post-emerge test, crop safety; conditions: post-emerge; for Post-emerge Herbicidal Activity CORN: crop damage rating 0-100 at 14 days after application; for phytotoxicity rating CORN (crop damage): 14 days after application, rating scale 0-100
Summary of the method: as §1

[21] = tested on: upland rice (Oryza sp., var. Tebonnet, RICE); assay: Post-emerge test, crop safety; conditions: post-emerge; for Post-emerge Herbicidal Activity RICE: crop damage rating 0-100 at 14 days after application; for phytotoxicity rating RICE (crop damage): 14 days after application, rating scale 0-100
Summary of the method: as §1

[22] = pre-emerge, rate 63 g ai/ha, phytotoxicity rating 0-100 at 14 days after application
[23] = pre-emerge, rate 250 g ai/ha, phytotoxicity rating 0-100 at 14 days after application
[24] = crop damage, pre-emerge, rate 63 g ai/ha, phytotoxicity rating 0-100 at 14 days after application
[25] = crop damage, pre-emerge, rate 250 g ai/ha, phytotoxicity rating 0-100 at 14 days after application
[26] = 63 g ai/ha, phytotoxicity rating 0-100, 14 days after application
[27] = 250 g ai/ha, phytotoxicity rating 0-100, 14 days after application
[28] = 63 g ai/ha, crop damage rating 0-100, 14 days after application
[29] = 250 g ai/ha, crop damage rating 0-100, 14 days after application

## Cc1c(Cl)cc(F)c(-n2c(=O)cc(C(F)(F)F)n(C)c2=O)c1NC(=O)SCc1ccccc1 [4-66]
[1]; [22]
  Pre-emerge Herbicidal Activity DIGSA: 80
[1]; [23]
  Pre-emerge Herbicidal Activity DIGSA: 100
[2]; [22]
  Pre-emerge Herbicidal Activity ECHCG: 30
[2]; [23]
  Pre-emerge Herbicidal Activity ECHCG: 90
[3]; [22]
  Pre-emerge Herbicidal Activity IPOHE: 60
[3]; [23]
  Pre-emerge Herbicidal Activity IPOHE: 90
[4]; [22]
  Pre-emerge Herbicidal Activity CASOB: 30
[4]; [23]
  Pre-emerge Herbicidal Activity CASOB: 70
[5]; [22]
  Pre-emerge Herbicidal Activity SETVI: 70
[5]; [23]
  Pre-emerge Herbicidal Activity SETVI: 100
[6]; [22]
  Pre-emerge Herbicidal Activity CHEAL: 100
[6]; [23]
  Pre-emerge Herbicidal Activity CHEAL: 100
[7]; [22]
  Pre-emerge Herbicidal Activity ABUTH: 100
[7]; [23]
  Pre-emerge Herbicidal Activity ABUTH: 100
[8]; [22]
  Pre-emerge Herbicidal Activity AMARE: 100
[8]; [23]
  Pre-emerge Herbicidal Activity AMARE: 100
[9]; 63 g ai/ha
  Post-emerge Herbicidal Activity DIGSA: 10
[9]; 250 g ai/ha
  Post-emerge Herbicidal Activity DIGSA: 50
[10]; 63 g ai/ha
  Post-emerge Herbicidal Activity ECHCG: 0
[10]; 250 g ai/ha
  Post-emerge Herbicidal Activity ECHCG: 40
[11]; 63 g ai/ha
  Post-emerge Herbicidal Activity IPOHE: 100
[11]; 250 g ai/ha
  Post-emerge Herbicidal Activity IPOHE: 100
[12]; 63 g ai/ha
  Post-emerge Herbicidal Activity SORHA: 0
[12]; 250 g ai/ha
  Post-emerge Herbicidal Activity SORHA: 50
[13]; 63 g ai/ha
  Post-emerge Herbicidal Activity CASOB: 20
[13]; 250 g ai/ha
  Post-emerge Herbicidal Activity CASOB: 90
[14]; 63 g ai/ha
  Post-emerge Herbicidal Activity SETVI: 10
[14]; 250 g ai/ha
  Post-emerge Herbicidal Activity SETVI: 60
[15]; 63 g ai/ha
  Post-emerge Herbicidal Activity CHEAL: 80
[15]; 250 g ai/ha
  Post-emerge Herbicidal Activity CHEAL: 100
[16]; 63 g ai/ha
  Post-emerge Herbicidal Activity AMARE: 80
[16]; 250 g ai/ha
  Post-emerge Herbicidal Activity AMARE: 100
[17]; 63 g ai/ha
  Post-emerge Herbicidal Activity ABUTH: 100
[17]; 250 g ai/ha
  Post-emerge Herbicidal Activity ABUTH: 100
[18]; [24]
  Pre-emerge Herbicidal Activity CORN: 0
[18]; [25]
  Pre-emerge Herbicidal Activity CORN: 50
[19]; [24]
  Pre-emerge Herbicidal Activity RICE: 20
[19]; [25]
  Pre-emerge Herbicidal Activity RICE: 65
[20]; 63 g ai/ha
  Post-emerge Herbicidal Activity CORN: 15
[20]; 250 g ai/ha
  Post-emerge Herbicidal Activity CORN: 60
[21]; 63 g ai/ha
  Post-emerge Herbicidal Activity RICE: 30
[21]; 250 g ai/ha
  Post-emerge Herbicidal Activity RICE: 70

## COc1c(Cl)cc(F)c(-n2c(=O)cc(C(F)(F)F)n(C)c2=O)c1NC(=O)OCc1ccccn1 [4-36]
[1]; [26]
  Pre-emerge Herbicidal Activity DIGSA: 30
[1]; [27]
  Pre-emerge Herbicidal Activity DIGSA: 100
[2]; [26]
  Pre-emerge Herbicidal Activity ECHCG: 30
[2]; [27]
  Pre-emerge Herbicidal Activity ECHCG: 90
[3]; [26]
  Pre-emerge Herbicidal Activity IPOHE: 100
[3]; [27]
  Pre-emerge Herbicidal Activity IPOHE: 100
[4]; [26]
  Pre-emerge Herbicidal Activity CASOB: 80
[4]; [27]
  Pre-emerge Herbicidal Activity CASOB: 100
[5]; [26]
  Pre-emerge Herbicidal Activity SETVI: 60
[5]; [27]
  Pre-emerge Herbicidal Activity SETVI: 100
[6]; [26]
  Pre-emerge Herbicidal Activity CHEAL: 100
[6]; [27]
  Pre-emerge Herbicidal Activity CHEAL: 100
[7]; [26]
  Pre-emerge Herbicidal Activity ABUTH: 100
[7]; [27]
  Pre-emerge Herbicidal Activity ABUTH: 100
[8]; [26]
  Pre-emerge Herbicidal Activity AMARE: 90
[8]; [27]
  Pre-emerge Herbicidal Activity AMARE: 100
[9]; 63 g ai/ha
  phytotoxicity rating DIGSA: 30
[9]; 250 g ai/ha
  phytotoxicity rating DIGSA: 70
[10]; 63 g ai/ha
  phytotoxicity rating ECHCG: 20
[10]; 250 g ai/ha
  phytotoxicity rating ECHCG: 60
[11]; 63 g ai/ha
  phytotoxicity rating IPOHE: 100
[11]; 250 g ai/ha
  phytotoxicity rating IPOHE: 100
[12]; 63 g ai/ha
  phytotoxicity rating SORHA: 10
[12]; 250 g ai/ha
  phytotoxicity rating SORHA: 90
[13]; 63 g ai/ha
  phytotoxicity rating CASOB: 100
[13]; 250 g ai/ha
  phytotoxicity rating CASOB: 100
[14]; 63 g ai/ha
  phytotoxicity rating SETVI: 90
[14]; 250 g ai/ha
  phytotoxicity rating SETVI: 90
[15]; 63 g ai/ha
  phytotoxicity rating CHEAL: 100
[15]; 250 g ai/ha
  phytotoxicity rating CHEAL: 100
[16]; 63 g ai/ha, rating scale 0-100 (0 no damage, 100 complete death)
  phytotoxicity rating AMARE: 100
[16]; 250 g ai/ha, rating scale 0-100
  phytotoxicity rating AMARE: 100
[17]; 63 g ai/ha
  phytotoxicity rating ABUTH: 100
[17]; 250 g ai/ha
  phytotoxicity rating ABUTH: 100
[18]; [28]
  Pre-emerge Herbicidal Activity CORN: 90
[18]; [29]
  Pre-emerge Herbicidal Activity CORN: 100
[19]; [28]
  Pre-emerge Herbicidal Activity RICE: 60
[19]; [29]
  Pre-emerge Herbicidal Activity RICE: 95
[20]; 63 g ai/ha
  phytotoxicity rating CORN (crop damage): 50
[20]; 250 g ai/ha
  phytotoxicity rating CORN (crop damage): 100
[21]; 63 g ai/ha
  phytotoxicity rating RICE (crop damage): 60
[21]; 250 g ai/ha
  phytotoxicity rating RICE (crop damage): 100
